How the values were obtained:
Type in all cases: cell-based
[1] = biological target: T1, P2X purinoceptor 7 (Homo sapiens, UniProt Q99572); assay: Antagonist activity at human P2X7R transfected in HEK293 cells assessed as inhibition of ATP-mediated calcium influx measured after 10 mins by YOPRO-1 dye uptake assay
T1 sequence (Q99572 whole entry): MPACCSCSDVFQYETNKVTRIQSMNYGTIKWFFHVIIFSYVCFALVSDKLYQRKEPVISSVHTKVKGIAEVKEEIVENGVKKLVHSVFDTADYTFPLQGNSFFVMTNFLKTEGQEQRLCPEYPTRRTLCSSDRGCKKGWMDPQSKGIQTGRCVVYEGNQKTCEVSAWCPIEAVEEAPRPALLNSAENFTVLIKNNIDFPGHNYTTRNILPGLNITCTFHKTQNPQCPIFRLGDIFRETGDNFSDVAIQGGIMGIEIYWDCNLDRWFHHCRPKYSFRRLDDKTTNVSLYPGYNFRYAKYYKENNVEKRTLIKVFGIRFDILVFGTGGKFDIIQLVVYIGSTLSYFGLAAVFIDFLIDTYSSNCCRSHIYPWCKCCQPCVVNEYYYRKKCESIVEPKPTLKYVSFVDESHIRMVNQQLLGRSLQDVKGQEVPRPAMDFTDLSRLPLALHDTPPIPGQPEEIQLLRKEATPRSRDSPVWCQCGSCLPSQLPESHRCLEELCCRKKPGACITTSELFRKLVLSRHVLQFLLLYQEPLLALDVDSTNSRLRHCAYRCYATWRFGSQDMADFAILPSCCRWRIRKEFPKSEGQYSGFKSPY

[2] = biological target: T2, P2X purinoceptor 4 (Homo sapiens, UniProt Q99571); assay: Antagonist activity at human P2X4R transfected in HEK293 cells assessed as inhibition of ATP-mediated calcium influx measured after 10 mins by YOPRO-1 dye uptake assay
T2 sequence (Q99571 whole entry): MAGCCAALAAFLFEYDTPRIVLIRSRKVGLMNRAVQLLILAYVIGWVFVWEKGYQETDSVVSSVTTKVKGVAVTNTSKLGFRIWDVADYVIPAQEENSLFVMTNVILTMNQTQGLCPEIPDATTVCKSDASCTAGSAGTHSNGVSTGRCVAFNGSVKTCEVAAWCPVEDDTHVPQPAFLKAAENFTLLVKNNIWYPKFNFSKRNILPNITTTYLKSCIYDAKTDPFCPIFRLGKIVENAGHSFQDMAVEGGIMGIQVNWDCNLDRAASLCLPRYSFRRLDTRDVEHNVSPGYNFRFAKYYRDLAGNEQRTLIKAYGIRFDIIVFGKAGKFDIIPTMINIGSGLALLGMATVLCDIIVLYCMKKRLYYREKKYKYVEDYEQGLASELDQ

[3] = biological target: T2, P2X purinoceptor 4; assay: Antagonist activity at human P2X4R transfected in 1321N1 cells assessed as inhibition of ATP-mediated calcium influx measured after 10 mins by Fura-2AM assay

Row | Compound | IC50 [1] | IC50 [2] | IC50 [3]
1 | Cc1ccc(S(=O)(=O)N2c3ccccc3Oc3ccccc32)cc1 | Not Active | – | –
2 | O=C1CN=C(c2cccc(Br)c2)c2oc3ccccc3c2N1 | Not Active | – | –
3 | CC(C)c1cc(Br)c(NC(=O)Nc2cccnc2)c(Br)c1 | Not Active | – | –
4 | O=C(CC12CC3CC(CC(C3)C1)C2)Nc1cccc2nc(NCCNCCO)ccc12 | – | Not Active | Not Active

— ChEMBL document CHEMBL4414589, “Development of High-Throughput Fluorescent-Based Screens to Accelerate Discovery of P2X Inhibitors from Animal Venoms” (J Nat Prod, 2019)
